The values that follow are results of earlier work, collected in US20040248861A1, “Modified delta5-androstenes having improved bioavailability” (priority 2003, published 2004).

For data set [1] the following is noted: patients with normal adrenal function taking supplemental DHEA.
The test system of data set [2] is virus similar to HIV. To be noted: doses as low as 8 mg/kg/day.
Data set [3] deals with flu viruses. Conditions: mice infected with flu viruses; to some of the viruses.
For data set [4] the following is noted: single transdermal dose of 25 mg.
For data set [5] the following is noted: 200 mg/day for 28 days.
The conditions of data set [6]: monkeys, very high doses (equivalent to about 70 grams/day for a human).
The conditions of data set [7]: supplement to diet.
Experiment in data set [8]: not given
The source holds these as a separate data set.

The structures appear in SMILES notation.

As for `C[C@]12CC[C@H](O)CC1=CC[C@@H]1[C@@H]2CC[C@]2(C)C(=O)CC[C@@H]12` [DHEA, dehydroepiandrosterone], the “acne (share of patients)” value in [1] was “over 50%”.

Take `C[C@]12CC[C@H](O)CC1=CC(=O)[C@@H]1[C@@H]2CC[C@]2(C)C(=O)CC[C@@H]12` [7-keto-DHEA, 7-keto-dehydroepiandrosterone]: the “metabolism to estrogens or testosterone” value (in vivo) was “does not metabolize”. For the setting “supplementary 7-keto-DHEA”, the “estradiol levels in the blood” value is on record as “decrease” and the “testosterone levels in the blood” value is listed as “decrease”. In addition, the bodyweight result in data set [2] was “regained bodyweight”. Besides, the anti-viral antibodies entry in data set [3] is listed as “increase”. Besides, the “blood levels of HDL-cholesterol” value in [4] is recorded as “improved”. Further, in data set [5], the “safety problems in clinical trials” value is listed as “no safety problems”. In addition, in data set [6], the salivation entry is “caused excess salivation”. In addition, in data set [7], the “T3 thyroid stimulating hormone” value was “increased”, the body fat entry was “statistically significant decreased” and the bodyweight result was “statistically significant decreased”.

On to `CCCCCCCCCCC(=O)O[C@H]1CC[C@H]2[C@@H]3CCC4=CC(=O)CC[C@]4(C)[C@H]3CC[C@]12C` [testosterone undecanoate], for which the “increase in serum levels of testosterone” value in data set [8] (single oral dose of 100 mg, dissolved in oil) is 2.3 fold.

Take `C[C@]12CC[C@H]3[C@@H](CCC4=CC(=O)CC[C@@]43C)[C@@H]1CC[C@@H]2O` [free testosterone, testosterone]: the “effect on serum levels of testosterone” value in data set [8] (oral, equivalent dose (63 mg)) was “no noticeable effect”.
